Assay results from US8962691B2, “Retinoid replacements and opsin agonists and methods for the use thereof” (University of Washington, priority 2003, dated 2015).

Key:
Rpe65−/− mice [1] = experiment: Analyses of retinoids and visual pigments in eyes of Rpe65−/− mice given 9-cis-retinal; assay type: in vivo, mouse
Procedure: All of the procedures were performed under dim red light as described previously (Van Hooser et al., Proc. Natl. Acad. Sci. USA 97:8623-28 (2000); Jang et al., J. Biol. Chem. 276:32456-65 (2001); Palczewski et al., Biochemistry 38:12012-19 (1999)). In addition to previously described methods, retinoid analysis was performed on an HP 1100 series high pressure liquid chromatograph (HPLC) equipped with a diode array detector and HP Chemstation A.07.01 software, allowing identification of retinoid isomers according to their specific retention time and absorption maxima. A normal phase column (Beckman Ultrasphere Si 5μ, 4.6×250 mm) and an isocratic solvent system of 0.5% ethyl acetate in hexane (v/v) for 15 minutes followed by 4% ethyl acetate in hexane for 60 minutes at a flow rate of 1.4 ml/minute at 20° C. (total 75 min) with detection at 325 nm allowed the separation of 11-cis-, 13-cis-, and all-trans-retinyl esters. In addition, all of the study procedures related to the analysis of dissected mouse eyes, derivatization, and separation of retinoids have been described previously in detail (Van Hooser et al., Proc. Natl. Acad. Sci. USA 97:8623-28 (2000)). Rhodopsin and iso-rhodopsin measurements were performed as described previously (Palczewski et al., Biochemistry 38:12012-19 (1999)). Typically, two mouse eyes were used per assay, and the assays were repeated three to six times. The data are presented with S.E.M.
(§1) Oral gavage was carried out as described previously (Van Hooser et al., Proc. Natl. Acad. Sci. USA 97:8623-28 (2000)).
(§2) The chemicals were purchased from Sigma/Aldrich unless otherwise specified. Solution A contained 10 mg of 9-cis-retinal, 75 mg of Cremophor EL, 1 mg of α-tocopherol, and 0.6 mg of benzoic acid suspended in 1 ml of lactated Ringer's solution (Baxter). The mixture was vortexed for 10 minutes and centrifuged for 10 minutes at 20,000×g, and the concentration of 9-cis-retinal (7.7 mM) was determined spectrophotometrically. Solution B contained 13 mg of 9-cis-retinal, 50 mg of Cremophor EL, 10 mg of dipalmitoylphosphatidyl choline, and 40 mg of 2-hydroxypropyl-β-cyclodextrin suspended in 1 ml of lactated Ringer's solution (Baxter). The mixture was vortexed for 10 minutes and centrifuged for 10 minutes at 20,000×g, and the concentration of 9-cis-retinal (10 mM) was determined spectrophotometrically. Solutions A and B (typically, 100 μl) were delivered to the mouse lateral tail vein employing a 1-ml syringe equipped with a 27-gauge needle and a restraint tube.

Rpe65−/− mice [2] = experiment: Mouse flicker electroretinograms; assay type: in vivo
Procedure: Mice were dark-reared from birth and anesthetized (ketaject/xylaject, 65 mg/kg intraperitoneally), and the pupils were dilated with tropicamide (1%). […] The mice were placed in a Ganzfield chamber, and flicker recordings were obtained from one eye.

rods from Rpe65−/− mice = experiment: Single cell recordings of isolated rods; assay type: in vivo, mouse
Procedure: Mice were dark-reared from birth and sacrificed via cervical dislocation, and the eyes were removed. The retina was isolated and stored on ice for up to 12 hours in HEPES-buffered Ames' solution (10 mM HEPES, pH adjusted to 7.4 with NaOH). Isolated rods were obtained by shredding a small piece of retina (roughly 1 mm^2) with fine needles in a 160-μl drop of solution. The drop was then injected into a recording chamber mounted on the stage of an inverted microscope (Nikon Eclipse) equipped with an infrared video viewing system and continuously superfused at 2-3 ml/minute with bicarbonate-buffered Ames' solution warmed to 37° C. (pH 7.4 when equilibrated with 5% CO2, 95% O2). The entire dissection was carried out under infrared illumination using a dissecting microscope equipped with infrared-visible image converters.
An isolated rod was drawn by suction into a heat-polished, silanized borosilicate electrode with an opening 1.2-1.5 μm in diameter. The electrode was filled with HEPES-buffered Ames' solution. The electrical connections to the bath and suction electrode were made by NaCl-filled agar bridges that contacted calomel half-cells. Bath voltage was held at ground by an active clamp circuit (Baylor et al. J. Physiol. 354:203-23 (1984)). Membrane current collected by the suction electrode was amplified by an Axopatch 200A patch clamp amplifier (Axon Instruments, Foster City, Calif.), filtered at 30 Hz (3 dB point) with an 8-pole Bessel low pass filter, and digitized at 1 kHz.
Light from light-emitting diodes with peak outputs at 470, 570, and 640 nm were combined using a trifurcated fiber optic and focused on the preparation using a water immersion lens in place of the microscope condensor. The light stimulus was spatially uniform and illuminated a circular area 0.57 mm in diameter centered on the recorded cell. Light intensities were measured at the preparation and converted to equivalent 500-nm photons (max for rod sensitivity) using the absorption spectrum of rhodopsin and the measured light-emitting diode spectrum.

[3] = Retinal in blood circulation after intravenous injection or gavage; assay type: in vivo, mouse; conditions: for t1/2 in the circulation: intravenous injection
Procedure: as §1, §2

Rpe65−/− mice [4] = conditions: mouse, in vivo
Procedure: Mice were anesthetized by intraperitoneal injection with 15 μl/g body weight of 6 mg/ml ketamine and 0.44 mg/ml xylazine diluted with 10 mM phosphate buffer, pH 7.2, containing 100 mM NaCl. The pupils were dilated with 1% tropicamide. A contact lens electrode was placed on the eye with a drop of methylcellulose, and a ground electrode (a reference electrode) was placed in the ear. ERGs were recorded with the universal testing and electrophysiologic system 3000 (UTAS E-3000) (LKC Technologies, Inc.). The mice were placed in a Ganzfield chamber, and responses to flash stimuli were obtained from both eyes simultaneously. […] Two to four recordings were made with >10-second intervals. Typically, 4-8 animals were used for recording of each point in all conditions. All ERG measurements were done within 10-40 minutes after anesthesia.

CC1=C(/C=C/C(C)=C\C=C\C(C)=C\C=O)C(C)(C)CCC1 [9-cis-retinal]
axial density of iso-rhodopsin as share of rhodopsin in Rpe65+/+ rods (Rpe65−/− mice [1]; 0.25 mg): 16% | free opsin as share of total available pigment (Rpe65−/− mice [1]; 0.25 mg): 72% | axial density of iso-rhodopsin as share of rhodopsin in Rpe65+/+ rods (Rpe65−/− mice [1]; 1.25 mg): 21% | free opsin as share of total available pigment (Rpe65−/− mice [1]; 1.25 mg): 63% | amount of iso-rhodopsin (Rpe65−/− mice [1]; 2.5 mg): 300 pmol | free opsin in rods (Rpe65−/− mice [1]; 2.5 mg): no free opsin | iso-rhodopsin as share of rhodopsin in Rpe65+/+ rods (Rpe65−/− mice [1]; 2.5 mg): about 57% | number of iso-rhodopsin molecules in rods (Rpe65−/− mice [1]; 2.5 mg): about 1.2×10^7 | iso-rhodopsin formed (Rpe65−/− mice [1]; 2.5 mg dose gavage): 300±25 pmol of iso-rhodopsin/eye | iso-rhodopsin and 9-cis-retinyl esters after flashes (Rpe65−/− mice [1]; 2.5 mg, after 48 hour more than three intense flashes at 1-hour intervals): significantly depleted | retinyl esters from liver and RPE after flashes (Rpe65−/− mice [1]; 2.5 mg, five flashes at 24-hour intervals): completely depleted | all-trans-retinyl ester accumulation (Rpe65−/− mice [1]; 0.25-mg dose every other day from PND 7 until 30 days old): dramatic change in the ester accumulation | iso-rhodopsin formed (Rpe65−/− mice [1]; 0.25-mg dose gavage): 85.6±6.2 pmol/eye | iso-rhodopsin formed (Rpe65−/− mice [1]; 1.25-mg dose gavage): 109.8 pmol of iso-rhodopsin/eye | decrease of iso-rhodopsin with age (Rpe65−/− mice [1]; 6-month-old (FIG. 2B) compared with FIG. 2A): 50% | reduction of ester levels compared with untreated animals (Rpe65−/− mice [1]; 6 month-old Rpe65−/− mice treated twice, 2.5 mg/dose): > 50% | iso-rhodopsin levels between dosing regimens (Rpe65−/− mice [1]; 6 month-old mice, 2.5 mg/dose twice at PND 30 and 34, 30 and 120, or 30 and 150): comparable | pigment deficit of Rpe65−/− rods relative to Rpe65+/+ (Rpe65−/− mice [1]; 48 hours after treatment): approximately 40% | time rod photopigment is produced and maintained (Rpe65−/− mice [1]; Rpe65−/− mice in the dark): more than 6 months | overall amounts of all-trans-retinyl esters (Rpe65−/− mice [1]; continued administration of 1 dose (1.25 mg) per week after early treatment): dramatically suppressed | accumulation of 9-cis-retinyl esters in the liver or RPE (Rpe65−/− mice [1]; intravenous injection, addition of cyclodextrin): higher accumulation | iso-rhodopsin production (Rpe65−/− mice [1]; intravenous injection, with and without cyclodextrins): produced iso-rhodopsin | depletion of retinal (iso-rhodopsin level) (Rpe65−/− mice [1]; single 2.5 mg dose at 1 month, 12-hour light/dark cycle or 24 hour dark for 37 days): No appreciable depletion of retinal | removal of accumulated esters in the RPE (Rpe65−/− mice [1]; treatment began after more than 1 month of age): not removed | time rod retinal function is supported post-treatment (Rpe65−/− mice [2]; early intervention, Rpe65−/− mice): more than 6 months | gain in ERG sensitivity over untreated mice (Rpe65−/− mice [2]; eight weeks after single 2.5 mg): 2.1 logarithmic units | flicker ERG peak amplitude (Rpe65−/− mice [2]; eight weeks after single 2.5 mg, at 0.059 cd·s/m^2): 137.3±24.4 μV | flicker ERG peak amplitude (Rpe65−/− mice [2]; eight weeks after single 2.5 mg, at 13 cd·s/m^2): 40.0±7.1 μV | persistence of partial recovery of ERG sensitivity (Rpe65−/− mice [2]; treated once at PND 30): more than 12 weeks | factor of increase of half-saturating flash intensity over Rpe65+/+ rods (rods from Rpe65−/− mice; 0.25 mg): 131 | further desensitization of rods (rods from Rpe65−/− mice; 0.25 mg): 6.8 fold | light-sensitive dark current of rods (rods from Rpe65−/− mice; 0.25 mg): 3.6±0.9 pA | factor of increase of half-saturating flash intensity over Rpe65+/+ rods (rods from Rpe65−/− mice; 1.25 mg): 66 | further desensitization of rods (rods from Rpe65−/− mice; 1.25 mg): 4.5 fold | dim flash response kinetics vs Rpe65+/+ (rods from Rpe65−/− mice; 2.5 mg): essentially the same kinetics | factor of increase of half-saturating flash intensity over Rpe65+/+ rods (rods from Rpe65−/− mice; 2.5 mg): 6 | increase in half-saturating flash strength compared with rods of Rpe65+/+ (rods from Rpe65−/− mice; 2.5 mg): 6 fold | rod dark current (rods from Rpe65−/− mice; 2.5 mg): essentially the same as Rpe65+/+ | dim flash response time-to-peak and recovery times (rods from Rpe65−/− mice; 1.25 or 0.25 mg): substantially faster than those of Rpe65+/+ | half-saturating flash intensity I0 (rods from Rpe65−/− mice; Rpe65−/− mice treated with 0.25 mg of 9-cis-retinal): 3929 equivalent 500 nm photons/μm^2 | half-saturating flash intensity I0 (rods from Rpe65−/− mice; Rpe65−/− mice treated with 1.25 mg of 9-cis-retinal): 1995 equivalent 500 nm photons/μm^2 | half-saturating flash intensity I0 (rods from Rpe65−/− mice; Rpe65−/− mice treated with 2.5 mg of 9-cis-retinal): 164 equivalent 500 nm photons/μm^2 | presence of retinal in the bloodstream ([3]; gavage): greater than 48 hours | t1/2 in the circulation ([3]; in the presence of cyclodextrins): 23 h | t1/2 in the circulation ([3]; without cyclodextrins): 12 h | ERG activity (a- and b-wave) compared with Me2SO (Rpe65−/− mice [4]): significantly increased sensitivity
